Test results reported in ChEMBL document CHEMBL1154142, “Tyrosine derivatives isolated from Streptomyces sp. IFM 10937 in a screening program for TRAIL-resistance-overcoming activity” (2008).
Calls of active or inactive are those of the source. The rule behind the calls is not given here.

Legend:
Format in all cases: functional
[1] = system: AGS; experiment: Anticancer activity against TRAIL-resistant human AGS cells assessed as cell viability at 150 uM after 24 hrs by fluorometric microculture cytotoxicity assay in presence of 100 ng/ml TRAIL
[2] = system: AGS; experiment: Anticancer activity against TRAIL-resistant human AGS cells assessed as cell viability at 75 uM after 24 hrs by fluorometric microculture cytotoxicity assay in presence of 100 ng/ml TRAIL
[3] = system: AGS; experiment: Anticancer activity against TRAIL-resistant human AGS cells assessed as cell viability at 17.5 uM after 24 hrs by fluorometric microculture cytotoxicity assay in presence of 100 ng/ml TRAIL
[4] = system: AGS; experiment: Anticancer activity against TRAIL-resistant human AGS cells assessed as cell viability at 37.5 uM after 24 hrs by fluorometric microculture cytotoxicity assay in presence of 100 ng/ml TRAIL

| SMILES | Activity [1] | Activity [2] | Activity [3] [%] | Activity [4] [%] |
| --- | --- | --- | --- | --- |
| CC(=O)N[C@@H](Cc1ccc(O)c(CC=C(C)C)c1)C(=O)O | 67% | 77% | – | – |
| O=c1cc(-c2ccc(O)c(O)c2)oc2cc(O)cc(O)c12 [LUTEOLIN] | – | – | 70 | – |
| CO[C@@H]1[C@@H](OC(N)=O)[C@@H](O)[C@H](Oc2ccc3c(O)c(NC(=O)c4ccc(O)c(CC=C(C)C)c4)c(=O)oc3c2C)OC1(C)C [NOVOBIOCIN] | – | 63% | – | 72 |
| CC(C)=CCc1cc(C[C@H](N)C(=O)O)ccc1O | inactive | inactive | – | – |
